Laboratory results as given in the NIST ThermoML archive (doi:10.1021/je700591h).
Numbers after ± are expanded uncertainties.

Conditions: Crystal

Normal melting temperature: 18.51 ± 6 °C
SMILES: C[S+](C)[O-] [dimethyl sulfoxide]
